In patent US9937151B2, “Carbapenem antibacterials with gram-negative activity” (priority 2010, dated 2018):
In brackets after ≈: the same amount, converted by molar mass.

System: G(−) bacterial strains
Assay: Dilution antimicrobial susceptibility tests (MIC, NCCLS agar dilution / broth dilution)
Assay type: cell-based, Gram-negative organisms
Settings: unit assumed
In short: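 Agar dilution on Mueller-Hinton agar at 10^4 CFU/spot and broth dilution at 5×10^5 CFU/well, per NCCLS M7-A5. Streptococci tested on Mueller-Hinton agar with 5% sheep blood. MIC taken as minimum inhibitory concentration; ATCC control strains run alongside.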

[1] = strain #1 Acinetobacter calcoaceticus
[2] = strain #2 Acinetobacter baumannii, Cf-R, Ci-R
[3] = strain #3 Acinetobacter baumannii, Cf-R, Ci-R, Mp-I
[4] = strain #4 Acinetobacter baumannii, Cf-R, Imp-I, CBPase
[5] = strain #7 Enterobacter aerogenes
[6] = strain #8 Enterobacter cloacae, Cf-R, B+
[7] = strain #9 Enterobacter cloacae, Cf-R
[8] = strain #10 Escherichia coli, Ci-R
[9] = strain #11 Escherichia coli, Ci-R, AmpC
[10] = strain #15 Klebsiella pneumoniae
[11] = strain #16 Moraxella catarrhalis
[12] = strain #21 Providencia rettgeri
[13] = strain #22 Salmonella typhimurium
[14] = strain #25 Shigella dysenteriae
[15] = strain #28 Stenotrophomonas maltophilia
[16] = strain #29 Pseudomonas aeruginosa
[17] = strain #30 Pseudomonas aeruginosa
[18] = strain #31 Pseudomonas aeruginosa, Ofx-R
[19] = strain #32 Pseudomonas aeruginosa, Cf-R
[20] = strain #33 Pseudomonas aeruginosa, Ci-R
[21] = strain #34 Pseudomonas aeruginosa, Gen-R
[22] = strain #35 Pseudomonas aeruginosa, Ip-R
[23] = strain #36 Pseudomonas aeruginosa, Cf-R, Ci-R, Mp-R

Structure (SMILES): C[C@@H](O)C1C(=O)N2C(C(=O)O)=C(CN3CC[C@H](NC(=O)CNS(N)(=O)=O)C3)[C@H](C)C12 (some centres unmarked) [Compound 163]
- MIC [1]: 2 µg/mL (≈ 4.49 µM)
- MIC [2]: 4 µg/mL (≈ 8.98 µM)
- MIC [3]: 8 µg/mL (≈ 18 µM)
- MIC [4]: 16 µg/mL (≈ 35.9 µM)
- MIC (strain #5 Citrobacter diversus): 0.5 µg/mL (≈ 1.12 µM)
- MIC (strain #6 Citrobacter freundii): 1 µg/mL (≈ 2.24 µM)
- MIC [5]: 2 µg/mL (≈ 4.49 µM)
- MIC [6]: 0.5 µg/mL (≈ 1.12 µM)
- MIC [7]: 1 µg/mL (≈ 2.24 µM)
- MIC [8]: 0.5 µg/mL (≈ 1.12 µM)
- MIC [9]: 0.5 µg/mL (≈ 1.12 µM)
- MIC (strain #12 Escherichia coli): 0.5 µg/mL (≈ 1.12 µM)
- MIC (strain #13 Escherichia coli): 0.5 µg/mL (≈ 1.12 µM)
- MIC (strain #14 Klebsiella oxytoca): 1 µg/mL (≈ 2.24 µM)
- MIC [10]: 1 µg/mL (≈ 2.24 µM)
- MIC [11]: ≤ 0.008 µg/mL
- MIC (strain #17 Morganella Morganii): 8 µg/mL (≈ 18 µM)
- MIC (strain #18 Morganella Morganii): 8 µg/mL (≈ 18 µM)
- MIC (strain #19 Proteus vulgaris): 4 µg/mL (≈ 8.98 µM)
- MIC (strain #20 Proteus mirabilis): 0.5 µg/mL (≈ 1.12 µM)
- MIC [12]: 1 µg/mL (≈ 2.24 µM)
- MIC [13]: 0.5 µg/mL (≈ 1.12 µM)
- MIC (strain #23 Serratia marcescens): 2 µg/mL (≈ 4.49 µM)
- MIC (strain #24 Serratia marcescens): 2 µg/mL (≈ 4.49 µM)
- MIC [14]: 1 µg/mL (≈ 2.24 µM)
- MIC (strain #26 Shigella sonnei): 0.5 µg/mL (≈ 1.12 µM)
- MIC (strain #27 Shigella flexneri): 0.5 µg/mL (≈ 1.12 µM)
- MIC [15]: 1 µg/mL (≈ 2.24 µM)

Structure (SMILES): C[C@@H](O)C1C(=O)N2C(C(=O)O)=C(CN3CCC(NC(=O)CNC(=N)N)C3)[C@H](C)C12 (some centres unmarked) [Compound 167]
- MIC [1]: 32 µg/mL (≈ 78.3 µM)
- MIC [2]: > 32 µg/mL
- MIC [3]: > 32 µg/mL
- MIC [4]: > 32 µg/mL
- MIC (strain #5 Citrobacter diversus): 1 µg/mL (≈ 2.45 µM)
- MIC (strain #6 Citrobacter freundii): 2 µg/mL (≈ 4.9 µM)
- MIC [5]: 4 µg/mL (≈ 9.79 µM)
- MIC [6]: 2 µg/mL (≈ 4.9 µM)
- MIC [7]: 2 µg/mL (≈ 4.9 µM)
- MIC [8]: 1 µg/mL (≈ 2.45 µM)
- MIC [9]: 1 µg/mL (≈ 2.45 µM)
- MIC (strain #12 Escherichia coli): 1 µg/mL (≈ 2.45 µM)
- MIC (strain #13 Escherichia coli): 1 µg/mL (≈ 2.45 µM)
- MIC (strain #14 Klebsiella oxytoca): 2 µg/mL (≈ 4.9 µM)
- MIC [10]: 2 µg/mL (≈ 4.9 µM)
- MIC [11]: 2 µg/mL (≈ 4.9 µM)
- MIC (strain #17 Morganella Morganii): 8 µg/mL (≈ 19.6 µM)
- MIC (strain #18 Morganella Morganii): 8 µg/mL (≈ 19.6 µM)
- MIC (strain #19 Proteus vulgaris): 4 µg/mL (≈ 9.79 µM)
- MIC (strain #20 Proteus mirabilis): 2 µg/mL (≈ 4.9 µM)
- MIC [12]: 2 µg/mL (≈ 4.9 µM)
- MIC [13]: 2 µg/mL (≈ 4.9 µM)
- MIC (strain #23 Serratia marcescens): 2 µg/mL (≈ 4.9 µM)
- MIC (strain #24 Serratia marcescens): 4 µg/mL (≈ 9.79 µM)
- MIC [14]: 1 µg/mL (≈ 2.45 µM)
- MIC (strain #26 Shigella sonnei): 1 µg/mL (≈ 2.45 µM)
- MIC (strain #27 Shigella flexneri): 1 µg/mL (≈ 2.45 µM)
- MIC [15]: 16 µg/mL (≈ 39.2 µM)

Structure (SMILES): C[C@@H](O)[C@H]1C(=O)N2C(C(=O)O)=C(CN3C[C@@H](O)[C@H](NC(=N)N)C3)[C@H](C)[C@H]12 [Compound 178]
- MIC [1]: 0.13 µg/mL (≈ 0.354 µM)
- MIC [2]: 1 µg/mL (≈ 2.72 µM)
- MIC [3]: 1 µg/mL (≈ 2.72 µM)
- MIC [4]: 1 µg/mL (≈ 2.72 µM)
- MIC (strain #5 Citrobacter diversus): 0.25 µg/mL (≈ 0.68 µM)
- MIC (strain #6 Citrobacter freundii): 0.5 µg/mL (≈ 1.36 µM)
- MIC [5]: 1 µg/mL (≈ 2.72 µM)
- MIC [6]: 0.25 µg/mL (≈ 0.68 µM)
- MIC [7]: 0.5 µg/mL (≈ 1.36 µM)
- MIC [8]: 0.25 µg/mL (≈ 0.68 µM)
- MIC [9]: 0.25 µg/mL (≈ 0.68 µM)
- MIC (strain #12 Escherichia coli): 0.5 µg/mL (≈ 1.36 µM)
- MIC (strain #13 Escherichia coli): 0.5 µg/mL (≈ 1.36 µM)
- MIC (strain #14 Klebsiella oxytoca): 0.5 µg/mL (≈ 1.36 µM)
- MIC [10]: 0.5 µg/mL (≈ 1.36 µM)
- MIC [11]: ≤ 0.008 µg/mL
- MIC (strain #17 Morganella Morganii): 2 µg/mL (≈ 5.44 µM)
- MIC (strain #18 Morganella Morganii): 2 µg/mL (≈ 5.44 µM)
- MIC (strain #19 Proteus vulgaris): 2 µg/mL (≈ 5.44 µM)
- MIC (strain #20 Proteus mirabilis): 0.5 µg/mL (≈ 1.36 µM)
- MIC [12]: 1 µg/mL (≈ 2.72 µM)
- MIC [13]: 0.5 µg/mL (≈ 1.36 µM)
- MIC (strain #23 Serratia marcescens): 1 µg/mL (≈ 2.72 µM)
- MIC (strain #24 Serratia marcescens): 2 µg/mL (≈ 5.44 µM)
- MIC [14]: 0.5 µg/mL (≈ 1.36 µM)
- MIC (strain #26 Shigella sonnei): 0.5 µg/mL (≈ 1.36 µM)
- MIC (strain #27 Shigella flexneri): 0.25 µg/mL (≈ 0.68 µM)
- MIC [15]: 0.13 µg/mL (≈ 0.354 µM)
- MIC [16]: 1 µg/mL (≈ 2.72 µM)
- MIC [17]: 2 µg/mL (≈ 5.44 µM)
- MIC [18]: 1 µg/mL (≈ 2.72 µM)
- MIC [19]: 2 µg/mL (≈ 5.44 µM)
- MIC [20]: 2 µg/mL (≈ 5.44 µM)
- MIC [21]: 2 µg/mL (≈ 5.44 µM)
- MIC [22]: 2 µg/mL (≈ 5.44 µM)
- MIC [23]: 16 µg/mL (≈ 43.5 µM)

Structure (SMILES): CC(O)C1C(=O)N2C(C(=O)O)=C(CN3CCC(C(=N)N)C3)C(C)C12 (centres unmarked) [Compound 185a]
- MIC [1]: 0.13 µg/mL (≈ 0.386 µM)
- MIC [2]: 0.5 µg/mL (≈ 1.49 µM)
- MIC [3]: 1 µg/mL (≈ 2.97 µM)
- MIC [4]: 1 µg/mL (≈ 2.97 µM)
- MIC (strain #5 Citrobacter diversus): 0.13 µg/mL (≈ 0.386 µM)
- MIC (strain #6 Citrobacter freundii): 0.13 µg/mL (≈ 0.386 µM)
- MIC [5]: 0.5 µg/mL (≈ 1.49 µM)
- MIC [6]: 0.063 µg/mL (≈ 0.187 µM)
- MIC [7]: 0.13 µg/mL (≈ 0.386 µM)
- MIC [8]: 0.063 µg/mL (≈ 0.187 µM)
- MIC [9]: 0.063 µg/mL (≈ 0.187 µM)
- MIC (strain #12 Escherichia coli): 0.063 µg/mL (≈ 0.187 µM)
- MIC (strain #13 Escherichia coli): 0.13 µg/mL (≈ 0.386 µM)
- MIC (strain #14 Klebsiella oxytoca): 0.25 µg/mL (≈ 0.743 µM)
- MIC [10]: 0.25 µg/mL (≈ 0.743 µM)
- MIC [11]: ≤ 0.008 µg/mL
- MIC (strain #17 Morganella Morganii): 1 µg/mL (≈ 2.97 µM)
- MIC (strain #18 Morganella Morganii): 1 µg/mL (≈ 2.97 µM)
- MIC (strain #19 Proteus vulgaris): 0.5 µg/mL (≈ 1.49 µM)
- MIC (strain #20 Proteus mirabilis): 0.13 µg/mL (≈ 0.386 µM)
- MIC [12]: 0.5 µg/mL (≈ 1.49 µM)
- MIC [13]: 0.13 µg/mL (≈ 0.386 µM)
- MIC (strain #23 Serratia marcescens): 0.25 µg/mL (≈ 0.743 µM)
- MIC (strain #24 Serratia marcescens): 0.5 µg/mL (≈ 1.49 µM)
- MIC [14]: 0.13 µg/mL (≈ 0.386 µM)
- MIC (strain #26 Shigella sonnei): 0.13 µg/mL (≈ 0.386 µM)
- MIC (strain #27 Shigella flexneri): 0.063 µg/mL (≈ 0.187 µM)
- MIC [15]: 0.063 µg/mL (≈ 0.187 µM)
- MIC [16]: 1 µg/mL (≈ 2.97 µM)
- MIC [17]: 1 µg/mL (≈ 2.97 µM)
- MIC [18]: 0.5 µg/mL (≈ 1.49 µM)
- MIC [19]: 1 µg/mL (≈ 2.97 µM)
- MIC [20]: 1 µg/mL (≈ 2.97 µM)
- MIC [21]: 1 µg/mL (≈ 2.97 µM)
- MIC [22]: 2 µg/mL (≈ 5.95 µM)
- MIC [23]: 8 µg/mL (≈ 23.8 µM)
